Experimental data reported in patent publication US20090281049A1, “New use of ginsenoside compound-k in manufacturing medicaments” (priority 2006, published 2009).

Columns and labels:
Settings in all cases: 1 mg/kg po
[1] = tested on: carrageenan-induced acute inflammation in mice; test: Carrageenan-induced paw edema in mice; format: in vivo, Kunming mice
[2] = tested on: carrageenan-induced acute inflammation in rats; test: Carrageenan-induced paw edema in rats; format: in vivo, Rat, SD strain
Description: Animals were firstly divided into large dose group: 10 mg/kg, iv, medium dose group: 5 mg/kg, iv, small dose group: 2.5 mg/kg, iv, an Indomethacin group: 1 mg/kg, po and a blank control group: physiological saline 10 mg/kg, iv. The animals were administered by the foregoing method for 3 days. The volume of the right hind paw of the rats was measured using hydroplethismometer before inflammation induced. 1 hour after the last administration, 0.1 ml 1% carrageenan was injected into the plantar surface of the right hind paw in order to induce inflammation. The volume of the right hind paw of the rats was measured by hydroplethismometer every other hour thereafter respectively. Swell rate and inhibition rate were calculated by the same method as above. Differences among groups were compared with t test.

[3] = tested on: Adjuvant Arthritis in rats; test: Preventive effect on adjuvant induced adjuvant arthritis in rats; format: in vivo, Rat, SD strain
Description: (§1) Freund's Adjuvant Complete, purchased from Sigma Company, was injected into the plantar surface of the right hind paw by 0.1 ml in order to induce inflammation in rats.
(§2) Animals were firstly divided into large dose group: 10 mg/kg, iv, medium dose group: 5 mg/kg, iv, small dose group: 2.5 mg/kg, iv, Indomethacin group: 1 mg/kg, po, Tripterygium Wilfordii Hook group: 1.5 mg/kg, po and blank control group: physiological saline 10 mg/kg, iv. The volume of the right hind paw of the rats was measured by using hydroplethismometer before inflammation induced. Then 0.1 ml Freund's Adjuvant Complete was injected into the plantar surface of the right hind paw in order to induce inflammation in rats. The rats were grouped by the foregoing division way in the succeeding day, and to be administered for 15 days. The volume of paw was measured in regular intervals. Swell rate and inhibition rate were calculated by the same method as the foregoing. Differences among groups were compared by t test.

[4] = tested on: Adjuvant Arthritis in rats; test: Treatment effect on adjuvant induced adjuvant arthritis in rats; format: in vivo, Rat, SD strain
Description: as §1
as §2, with “1.5 mg/kg, po. and blank” for “1.5 mg/kg, po and blank”, “in rats. 20 days after inflammation induced, the rats were” for “in rats. The rats were”, “foregoing division method and to” for “foregoing division way in the succeeding day, and to”, “administered for 8 days. The” for “administered for 15 days. The”, “were calculated with the same” for “were calculated by the same”, “were compared with t test.” for “were compared by t test.”

COc1ccc2c(c1)c(CC(=O)O)c(C)n2C(=O)c1ccc(Cl)cc1 [Indomethacin, reference compound]
swell value ([1]; 0 h): 1.47 ± 0.14 mL
inhibition rate ([1]; 1 h): <2.39> %
swell rate ([1]; 1 h): (67.11 ± 17.30) %
swell value ([1]; 1 h): 2.44 ± 0.19 mL
inhibition rate ([1]; 2 h): <16.11> %
swell rate ([1]; 2 h): (60.95 ± 18.36) %
swell value ([1]; 2 h): 2.35 ± 0.20 mL
inhibition rate ([1]; 4 h): <36.57> %
swell rate ([1]; 4 h): (51.04 ± 14.09) %
swell value ([1]; 4 h): 2.21 ± 0.11 mL
inhibition rate ([1]; 6 h): <24.41> %
swell rate ([1]; 6 h): (55.36 ± 19.90) %
swell value ([1]; 6 h): 2.26 ± 0.11 mL
swell value ([2]; 0 h): 1.34 ± 0.15 mL
inhibition rate ([2]; 1 h): <4.23> %
swell rate ([2]; 1 h): (22.51 ± 10.19) %
swell value ([2]; 1 h): 1.68 ± 0.10 mL
inhibition rate ([2]; 2 h): <20.44> %
swell rate ([2]; 2 h): (25.65 ± 14.10) %
swell value ([2]; 2 h): 1.72 ± 0.16 mL
inhibition rate ([2]; 3 h): <20.17> %
swell rate ([2]; 3 h): (33.28 ± 13.54) %
swell value ([2]; 3 h): 1.82 ± 0.17 mL
inhibition rate ([2]; 4 h): <26.76> %
swell rate ([2]; 4 h): (28.45 ± 15.71) %
swell value ([2]; 4 h): 1.77 ± 0.22 mL
inhibition rate ([2]; 5 h): <37.84> %
swell rate ([2]; 5 h): (23.04 ± 11.45) %
swell value ([2]; 5 h): 1.69 ± 0.15 mL
swell value ([3]; 0 day): 1.23 ± 0.11 mL
inhibition rate ([3]; 2 day): <27.67> %
swell rate ([3]; 2 day): (52.34 ± 15.07) %
swell value ([3]; 2 day): 1.85 ± 0.09 mL
inhibition rate ([3]; 4 day): <20.69> %
swell rate ([3]; 4 day): (70.99 ± 17.35) %
swell value ([3]; 4 day): 2.08 ± 0.13 mL
inhibition rate ([3]; 6 day): <12.34> %
swell rate ([3]; 6 day): (78.32 ± 23.41) %
swell value ([3]; 6 day): 2.17 ± 0.17 mL
inhibition rate ([3]; 9 day): <4.11> %
swell rate ([3]; 9 day): (69.44 ± 27.12) %
swell value ([3]; 9 day): 2.06 ± 0.23 mL
inhibition rate ([3]; 11 day): <32.39> %
swell rate ([3]; 11 day): (52.68 ± 12.02) %
swell value ([3]; 11 day): 1.86 ± 0.13 mL
inhibition rate ([3]; 13 day): <35.93> %
swell rate ([3]; 13 day): (53.00 ± 15.57) %
swell value ([3]; 13 day): 1.86 ± 0.13 mL
inhibition rate ([3]; 15 day): <35.50> %
swell rate ([3]; 15 day): (52.00 ± 11.27) %
swell value ([3]; 15 day): 1.86 ± 0.13 mL
swell value ([4]; 0 day): 1.14 ± 0.05 mL
inhibition rate ([4]; 19 day): <18.65> %
swell rate ([4]; 19 day): (80.03 ± 17.69) %
swell value ([4]; 19 day): 2.04 ± 0.20 mL
inhibition rate ([4]; 21 day): <19.05> %
swell rate ([4]; 21 day): (85.98 ± 15.49) %
swell value ([4]; 21 day): 2.11 ± 0.17 mL
inhibition rate ([4]; 23 day): <19.09> %
swell rate ([4]; 23 day): (86.16 ± 15.90) %
swell value ([4]; 23 day): 2.11 ± 0.17 mL
inhibition rate ([4]; 26 day): <20.41> %
swell rate ([4]; 26 day): (89.32 ± 16.25) %
swell value ([4]; 26 day): 2.15 ± 0.16 mL
inhibition rate ([4]; 30 day): <12.14> %
swell rate ([4]; 30 day): (92.39 ± 20.26) %
swell value ([4]; 30 day): 2.18 ± 0.23 mL
